From PubChem BioAssay (NCI)
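A five-concentration, 48-hour dose response in 96-well plates underlies each endpoint, interpolated linearly between surrounding concentrations. TGI marks complete inhibition of growth.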

Experiments:
Assay in all cases: NCI anticancer screen, dose series, 48 h
MDA-MB-231 breast = system: MDA-MB-231 breast
EKVX NSCLC = system: EKVX NSCLC
MCF7 breast = system: MCF7 breast
OVCAR-5 ovarian = system: OVCAR-5 ovarian
SF-268 CNS = system: SF-268 CNS
NCI-H23 lung = system: NCI-H23 lung
SNB-19 CNS = system: SNB-19 CNS
OVCAR-4 ovarian = system: OVCAR-4 ovarian
A498 renal = system: A498 renal
MOLT-4 leukemia = system: MOLT-4 leukemia
HS 578T breast = system: HS 578T breast
UO-31 renal = system: UO-31 renal
LOX IMVI melanoma = system: LOX IMVI melanoma
786-0 renal = system: 786-0 renal
K-562 leukemia = system: K-562 leukemia
COLO 205 colon = system: COLO 205 colon
RPMI-8226 leukemia = system: RPMI-8226 leukemia
U251 CNS = system: U251 CNS
BT-549 breast = system: BT-549 breast

SMILES	TGI (MDA-MB-231 breast)	TGI (EKVX NSCLC)	TGI (MCF7 breast)	TGI (OVCAR-5 ovarian)	TGI (SF-268 CNS)	TGI (NCI-H23 lung)	TGI (SNB-19 CNS)	TGI (OVCAR-4 ovarian)	TGI (A498 renal)	TGI (MOLT-4 leukemia)	TGI (HS 578T breast)	TGI (UO-31 renal)	TGI (LOX IMVI melanoma)	TGI (786-0 renal)	TGI (K-562 leukemia)	TGI (COLO 205 colon)	TGI (RPMI-8226 leukemia)	TGI (U251 CNS)	TGI (BT-549 breast)
O=[N+]([O-])c1ccc2c(c1)S(=O)(=O)N1Cc3ccccc3CCN21	> 100 µM	> 100 µM	> 100 µM	> 100 µM	> 100 µM	> 100 µM	> 100 µM	> 100 µM	> 100 µM	> 100 µM	> 100 µM	> 100 µM	> 100 µM	> 100 µM	> 100 µM	> 100 µM	> 100 µM	> 100 µM	
N#CC1C(=O)N(c2ccccc2)NC12OC(=O)c1ccncc12 (centres undefined)	> 20 µM	> 20 µM	> 20 µM	> 20 µM		> 20 µM	> 20 µM	> 20 µM	> 20 µM	> 20 µM		> 20 µM	> 20 µM	> 20 µM	> 20 µM	> 20 µM	> 20 µM	> 20 µM	> 20 µM
Cc1cccc(C(C)C)c1NC(=O)/C(Cc1c([N+](=O)[O-])cccc1[N+](=O)[O-])=N/NC(=O)CC#N		> 100 µM		> 100 µM	> 100 µM		> 100 µM		> 100 µM	> 100 µM		> 100 µM	> 100 µM	> 100 µM	> 100 µM	> 100 µM			
Cc1cc2c(cc1C(=O)CCC(=O)O)CC1(C2)Cc2cc(C)c(C(=O)CCC(=O)O)cc2C1	> 100 µM	> 100 µM	> 100 µM	> 100 µM	> 100 µM	> 100 µM	> 100 µM	> 100 µM	> 100 µM	> 100 µM	> 100 µM	> 100 µM	> 100 µM	> 100 µM	> 100 µM	> 100 µM	> 100 µM	> 100 µM	
O=c1[nH]c(=O)n(CCOc2ccccc2)cc1Nc1ccccc1		> 100 µM	> 100 µM	> 100 µM	> 100 µM	> 100 µM	> 100 µM		> 100 µM	> 100 µM	> 100 µM	> 100 µM	> 100 µM	> 100 µM	> 100 µM	> 100 µM	> 100 µM	> 100 µM	
O=C(O)C1CCCN(CCc2c[nH]c3ccccc23)C1 (centres undefined)	> 100 µM	> 100 µM	> 100 µM	> 100 µM	> 100 µM	> 100 µM	> 100 µM	> 100 µM	> 100 µM	> 100 µM			> 100 µM	> 100 µM	> 100 µM	> 100 µM	> 100 µM	> 100 µM	> 100 µM
O=C1N[C@H]2c3c(Cl)sc(Cl)c3[C@@H](O)[C@H]2O1	> 100 µM	> 100 µM	> 100 µM	> 100 µM	> 100 µM		> 100 µM		> 100 µM	> 100 µM		> 100 µM		> 100 µM	> 100 µM	> 100 µM	> 100 µM	> 100 µM	> 100 µM
O=c1c2ccccc2[nH]c2c(Cl)cc(Cl)c(NC3CCCCC3)c12	74.3 µM	76.8 µM	76.2 µM	53.9 µM		36.8 µM	38.8 µM	> 100 µM	43.3 µM	86.9 µM		33.5 µM	> 100 µM	> 100 µM	> 100 µM	> 100 µM	85 µM	36.9 µM	67.3 µM
O=C(CCN(C(=O)O)S(=O)(=O)c1ccc(NC(=O)c2ccccc2)cc1)NC1CCCCC1		> 100 µM		> 100 µM	> 100 µM	> 100 µM	> 100 µM	> 100 µM	> 100 µM	45.9 µM		> 100 µM	> 100 µM	31.7 µM	> 100 µM	> 100 µM	41.8 µM	> 100 µM	
c1ccc2c(c1)CC1=C(O2)c2ccccc2OC1	76.2 µM	45.7 µM	> 100 µM	> 100 µM	> 100 µM	> 100 µM		88.2 µM	> 100 µM	80.1 µM		> 100 µM	40.2 µM	32.6 µM		38.3 µM	67.3 µM	59.2 µM	51.1 µM
COc1ccccc1N(CN1C(=O)CCC1C(=O)O)C(C)=O (centres undefined)	> 100 µM	> 100 µM	> 100 µM	> 100 µM	> 100 µM	> 100 µM	> 100 µM	> 100 µM	> 100 µM	> 100 µM	> 100 µM	> 100 µM	> 100 µM	> 100 µM	> 100 µM	> 100 µM	> 100 µM	> 100 µM	
O=C1NC(=O)C(CCC(=O)c2ccc3ccccc3c2)C(=O)N1		> 100 µM		> 100 µM	> 100 µM	> 100 µM	> 100 µM	> 100 µM	> 100 µM	> 100 µM		> 100 µM	> 100 µM	> 100 µM	> 100 µM	> 100 µM		> 100 µM	
Oc1c2cc(Cl)cc1COCc1cc(Cl)cc(c1O)COCc1cc(Cl)cc(c1O)COC2		> 100 µM	> 100 µM	> 100 µM		98.6 µM	> 100 µM	> 100 µM	> 100 µM			> 100 µM	> 100 µM	37.7 µM	> 100 µM	> 100 µM	> 100 µM	> 100 µM	> 100 µM
OC1(c2ccccc2)C2CCN(CC2)C1CN1CCOCC1 (centres undefined)	> 100 µM	> 100 µM	> 100 µM	> 100 µM	> 100 µM	> 100 µM	> 100 µM	> 100 µM	> 100 µM	> 100 µM		> 100 µM	> 100 µM	> 100 µM	> 100 µM	> 100 µM	> 100 µM	> 100 µM	
